In PubChem BioAssay (NCI):
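Results reflect a 48-hour exposure of cells in 96-well plates to compound at five concentrations. At the TGI there is no net growth.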

Assays:
Experiment in all cases: NCI anticancer screen, dose series, 48 h
CCRF-CEM leukemia = system: CCRF-CEM leukemia
ACHN renal = system: ACHN renal
NCI-H522 lung = system: NCI-H522 lung
HCC-2998 colon = system: HCC-2998 colon
OVCAR-8 ovarian = system: OVCAR-8 ovarian
SF-268 CNS = system: SF-268 CNS
MOLT-4 leukemia = system: MOLT-4 leukemia
SN12C renal = system: SN12C renal
SF-539 CNS = system: SF-539 CNS
MALME-3M melanoma = system: MALME-3M melanoma
HOP-92 NSCLC = system: HOP-92 NSCLC
NCI-H226 lung = system: NCI-H226 lung
HOP-62 NSCLC = system: HOP-62 NSCLC
U251 CNS = system: U251 CNS
MCF7 breast = system: MCF7 breast
M14 melanoma = system: M14 melanoma
MDA-MB-231 breast = system: MDA-MB-231 breast
SW-620 colon = system: SW-620 colon
PC-3 prostate = system: PC-3 prostate
IGROV1 ovarian = system: IGROV1 ovarian
SNB-19 CNS = system: SNB-19 CNS
HT29 colon = system: HT29 colon
HL-60(TB) leukemia = system: HL-60(TB) leukemia
NCI-H460 lung = system: NCI-H460 lung
SK-MEL-2 melanoma = system: SK-MEL-2 melanoma
UACC-257 melanoma = system: UACC-257 melanoma
A549 NSCLC = system: A549 NSCLC
HCT-116 colon = system: HCT-116 colon
SNB-75 CNS = system: SNB-75 CNS
HS 578T breast = system: HS 578T breast
MDA-MB-435 = system: MDA-MB-435
NCI-H23 lung = system: NCI-H23 lung
UO-31 renal = system: UO-31 renal
SK-MEL-28 melanoma = system: SK-MEL-28 melanoma
A498 renal = system: A498 renal
SF-295 CNS = system: SF-295 CNS
K-562 leukemia = system: K-562 leukemia
OVCAR-4 ovarian = system: OVCAR-4 ovarian
RPMI-8226 leukemia = system: RPMI-8226 leukemia
BT-549 breast = system: BT-549 breast
SR leukemia = system: SR leukemia
EKVX NSCLC = system: EKVX NSCLC
OVCAR-3 ovarian = system: OVCAR-3 ovarian
SK-OV-3 ovarian = system: SK-OV-3 ovarian
COLO 205 colon = system: COLO 205 colon
SK-MEL-5 melanoma = system: SK-MEL-5 melanoma
MDA-N = system: MDA-N
TK-10 renal = system: TK-10 renal
OVCAR-5 ovarian = system: OVCAR-5 ovarian
KM12 colon = system: KM12 colon
NCI/ADR-RES ovarian = system: NCI/ADR-RES ovarian
UACC-62 melanoma = system: UACC-62 melanoma
786-0 renal = system: 786-0 renal
T-47D breast = system: T-47D breast
HCT-15 colon = system: HCT-15 colon
LOX IMVI melanoma = system: LOX IMVI melanoma
RXF 393 renal = system: RXF 393 renal
CAKI-1 renal = system: CAKI-1 renal

With `CN1CCN([C@H]2C[C@H]3[C@@H]4CC=C5C[C@@H](N6CCCC6)CC[C@]5(C)[C@H]4CC[C@]3(C)[C@H]2O)CC1` the TGI (CCRF-CEM leukemia) was > 100 µM, the TGI (ACHN renal) was > 100 µM and the TGI (NCI-H522 lung) was > 100 µM. The TGI (HCC-2998 colon) was 97.8 µM, the TGI (OVCAR-8 ovarian) was > 100 µM and the TGI (SF-268 CNS) was > 100 µM. The TGI (MOLT-4 leukemia) was > 100 µM, the TGI (SN12C renal) was > 100 µM and the TGI (SF-539 CNS) was 30.6 µM. For the same compound, the TGI (MALME-3M melanoma) was 35.8 µM, the TGI (HOP-92 NSCLC) was > 100 µM and the TGI (NCI-H226 lung) was > 100 µM. For the same compound, the TGI (HOP-62 NSCLC) was > 100 µM, the TGI (U251 CNS) was > 100 µM and the TGI (MCF7 breast) was > 100 µM. For the same compound, the TGI (M14 melanoma) was 29.8 µM, the TGI (MDA-MB-231 breast) was > 100 µM and the TGI (SW-620 colon) was > 100 µM. The TGI (PC-3 prostate) was > 100 µM, the TGI (IGROV1 ovarian) was > 100 µM and the TGI (SNB-19 CNS) was > 100 µM. The TGI (HT29 colon) was > 100 µM, the TGI (HL-60(TB) leukemia) was 47.9 µM and the TGI (NCI-H460 lung) was > 100 µM. For the same compound, the TGI (SK-MEL-2 melanoma) was > 100 µM, the TGI (UACC-257 melanoma) was 48.3 µM and the TGI (A549 NSCLC) was > 100 µM. For the same compound, the TGI (HCT-116 colon) was > 100 µM, the TGI (SNB-75 CNS) was > 100 µM and the TGI (HS 578T breast) was > 100 µM. The TGI (MDA-MB-435) was > 100 µM, the TGI (NCI-H23 lung) was > 100 µM and the TGI (UO-31 renal) was > 100 µM. For the same compound, the TGI (SK-MEL-28 melanoma) was 55.8 µM, the TGI (A498 renal) was > 100 µM and the TGI (SF-295 CNS) was > 100 µM. The TGI (K-562 leukemia) was 34.2 µM, the TGI (OVCAR-4 ovarian) was > 100 µM and the TGI (RPMI-8226 leukemia) was 53.6 µM. For the same compound, the TGI (BT-549 breast) was > 100 µM, the TGI (SR leukemia) was 16.4 µM and the TGI (EKVX NSCLC) was > 100 µM. For the same compound, the TGI (OVCAR-3 ovarian) was > 100 µM, the TGI (SK-OV-3 ovarian) was > 100 µM and the TGI (COLO 205 colon) was > 100 µM. For the same compound, the TGI (SK-MEL-5 melanoma) was 39.9 µM, the TGI (MDA-N) was 55 µM and the TGI (TK-10 renal) was > 100 µM. The TGI (OVCAR-5 ovarian) was > 100 µM, the TGI (KM12 colon) was > 100 µM and the TGI (NCI/ADR-RES ovarian) was > 100 µM. For the same compound, the TGI (UACC-62 melanoma) was > 100 µM, the TGI (786-0 renal) was > 100 µM and the TGI (T-47D breast) was > 100 µM. The TGI (HCT-15 colon) was > 100 µM, the TGI (LOX IMVI melanoma) was 39.1 µM and the TGI (RXF 393 renal) was 42.8 µM.

With `CCCCc1ccc(Nc2cc(=O)n(C)c(=O)[nH]2)cc1` the TGI (ACHN renal) was > 100 µM, the TGI (NCI-H522 lung) was > 100 µM and the TGI (HCC-2998 colon) was > 100 µM. The TGI (OVCAR-8 ovarian) was > 100 µM, the TGI (CAKI-1 renal) was > 100 µM and the TGI (SF-268 CNS) was > 100 µM. The TGI (SN12C renal) was > 100 µM, the TGI (SF-539 CNS) was > 100 µM and the TGI (MALME-3M melanoma) was > 100 µM. For the same compound, the TGI (HOP-92 NSCLC) was > 100 µM, the TGI (NCI-H226 lung) was > 100 µM and the TGI (HOP-62 NSCLC) was > 100 µM. For the same compound, the TGI (U251 CNS) was > 100 µM, the TGI (MCF7 breast) was 72.9 µM and the TGI (M14 melanoma) was > 100 µM. For the same compound, the TGI (MDA-MB-231 breast) was > 100 µM, the TGI (SW-620 colon) was > 100 µM and the TGI (PC-3 prostate) was > 100 µM. For the same compound, the TGI (IGROV1 ovarian) was > 100 µM, the TGI (SNB-19 CNS) was > 100 µM and the TGI (HT29 colon) was > 100 µM. The TGI (NCI-H460 lung) was > 100 µM, the TGI (SK-MEL-2 melanoma) was > 100 µM and the TGI (UACC-257 melanoma) was > 100 µM. For the same compound, the TGI (A549 NSCLC) was > 100 µM, the TGI (HCT-116 colon) was > 100 µM and the TGI (SNB-75 CNS) was > 100 µM. The TGI (HS 578T breast) was > 100 µM, the TGI (MDA-MB-435) was > 100 µM and the TGI (NCI-H23 lung) was > 100 µM. The TGI (UO-31 renal) was > 100 µM, the TGI (SK-MEL-28 melanoma) was > 100 µM and the TGI (A498 renal) was > 100 µM. For the same compound, the TGI (SF-295 CNS) was > 100 µM, the TGI (K-562 leukemia) was > 100 µM and the TGI (OVCAR-4 ovarian) was > 100 µM. The TGI (RPMI-8226 leukemia) was > 100 µM, the TGI (BT-549 breast) was > 100 µM and the TGI (EKVX NSCLC) was > 100 µM. The TGI (OVCAR-3 ovarian) was > 100 µM, the TGI (SK-OV-3 ovarian) was > 100 µM and the TGI (COLO 205 colon) was > 100 µM. The TGI (SK-MEL-5 melanoma) was > 100 µM, the TGI (MDA-N) was > 100 µM and the TGI (TK-10 renal) was > 100 µM. For the same compound, the TGI (OVCAR-5 ovarian) was > 100 µM, the TGI (KM12 colon) was > 100 µM and the TGI (NCI/ADR-RES ovarian) was > 100 µM. For the same compound, the TGI (UACC-62 melanoma) was > 100 µM, the TGI (786-0 renal) was > 100 µM and the TGI (T-47D breast) was > 100 µM. For the same compound, the TGI (HCT-15 colon) was > 100 µM, the TGI (LOX IMVI melanoma) was > 100 µM and the TGI (RXF 393 renal) was > 100 µM.
